Assay results: US10399945B2, “Tetrahydronaphthyl urea derivative” (MOCHIDA PHARMACEUTICAL CO., LTD., priority 2017, dated 2019)
pIC50: −log10 of the molar value.

Molecular target: Human TrkA Protein (Homo sapiens (Human), UniProt P04629)
Assay: Evaluation of Binding Activity for Human TrkA Protein (TrkA LanthaScreen Eu Kinase Binding Assay)
Settings: TrkA enzyme, Kinase Tracer 236, TR-FRET, 60 minutes at room temperature
Description: (Pharmacological Experimental Example 1): Evaluation of Binding Activity for Human TrkA Protein
Measurement was carried out using TrkA LanthaScreen (registered trademark) Eu Kinase Binding Assay (ThermoFisher SCIENTIFIC). To a 384 well plate (Corning), 2.5 μL of the test compound having various concentrations and diluted with Kinase buffer (ThermoFisher SCIENTIFIC) and 2.5 μL of 15 nM TrkA enzyme (ThermoFisher SCIENTIFIC) were added. Moreover, […] Eu-anti-His Tag antibody (ThermoFisher SCIENTIFIC) and 5 μL of 30 nM Kinase (registered trademark) Tracer 236 (ThermoFisher SCIENTIFIC) were added, followed by reaction at room temperature for 60 minutes. After the reaction, the fluorescence intensity of Europium (Emission wavelength 615 nm) and TR-FRET (Emission wavelength 665 nm) with an excitation wavelength of 340 nm were measured with EnVision 2100 (PerkinElmer) to calculate the fluorescence ratio as the amount of the test compound and the TrkA enzyme bonded. The inhibitory activity (IC50 value) of each test compound was calculated with the fluorescence ratio of the well to which a solvent was added instead of the test compound being 0% and the fluorescence ratio of the well without addition of the TrkA protein being 100%.
In Table 1, […] mean Compounds 1 to 62 synthesized in accordance with Examples 1 to 62 described later.

Human TrkA Protein, sequence (P04629 33-796): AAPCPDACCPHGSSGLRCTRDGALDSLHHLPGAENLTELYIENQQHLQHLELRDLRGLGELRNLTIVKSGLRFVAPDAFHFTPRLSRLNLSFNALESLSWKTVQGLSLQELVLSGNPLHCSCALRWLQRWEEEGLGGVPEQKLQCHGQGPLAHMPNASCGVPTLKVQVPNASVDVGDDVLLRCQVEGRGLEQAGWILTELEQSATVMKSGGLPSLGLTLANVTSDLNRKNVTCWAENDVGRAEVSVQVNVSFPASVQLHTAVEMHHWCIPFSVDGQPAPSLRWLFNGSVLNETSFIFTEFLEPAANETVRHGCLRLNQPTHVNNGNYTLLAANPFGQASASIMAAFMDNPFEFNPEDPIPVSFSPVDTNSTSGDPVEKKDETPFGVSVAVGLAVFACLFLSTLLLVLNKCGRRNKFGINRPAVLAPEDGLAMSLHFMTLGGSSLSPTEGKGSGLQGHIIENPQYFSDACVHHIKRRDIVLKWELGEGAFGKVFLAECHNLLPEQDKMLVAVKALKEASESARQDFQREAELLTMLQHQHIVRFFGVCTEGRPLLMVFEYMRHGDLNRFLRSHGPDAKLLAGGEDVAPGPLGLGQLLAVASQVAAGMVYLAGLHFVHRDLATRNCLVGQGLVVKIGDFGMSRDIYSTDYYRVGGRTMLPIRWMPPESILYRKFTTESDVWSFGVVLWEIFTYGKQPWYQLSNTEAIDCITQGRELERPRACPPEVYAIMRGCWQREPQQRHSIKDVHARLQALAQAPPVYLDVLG

| Molecule | pIC50 |
| --- | --- |
| Cc1cnc(-c2ccccc2)c(NC(=O)N[C@@H]2c3ccccc3C(C)(C)C[C@H]2O)c1 (racemic) [Compound 2, rac-1-((1R,2R)-2-hydroxy-4,4-dimethyl-1,2,3,4-tetrahydronaphthalen-1-yl)-3-(5-methyl-2-phenylpyridin-3-yl)urea] | ≥ 7.30 |
| Cc1cc(NC(=O)N[C@@H]2c3ccccc3C(C)(C)C[C@H]2O)c(-c2ccccc2)nc1-c1cn[nH]c1 (racemic) [Compound 5, rac-1-((1R,2R)-2-hydroxy-4,4-dimethyl-1,2,3,4-tetrahydronaphthalen-1-yl)-3-(5-methyl-6-(1H-pyrazol-4-yl)-2-phenylpyridin-3-yl)urea] | ≥ 7.30 |
| Cc1cc(NC(=O)N[C@@H]2c3ccccc3C(C)(C)C[C@H]2O)c(-c2ccccc2)nc1-c1cn[nH]c1 [Compound 18, 1-((1R,2R)-2-hydroxy-4,4-dimethyl-1,2,3,4-tetrahydronaphthalen-1-yl)-3-(5-methyl-2-phenyl-6-(1H-pyrazol-4-yl)pyridin-3-yl)urea] | ≥ 7.30 |
| Cc1cc(NC(=O)N[C@@H]2c3ccccc3C(C)(C)C[C@H]2O)c(-c2ccccc2)nc1-c1cnn(C)c1 (racemic) [Compound 4, rac-1-((1R,2R)-2-hydroxy-4,4-dimethyl-1,2,3,4-tetrahydronaphthalen-1-yl)-3-(5-methyl-6-(1-methyl-1H-pyrazol-4-yl)-2-phenylpyridin-3-yl)urea] | ≥ 7.30 |
| Cc1cc(NC(=O)N[C@@H]2c3ccccc3C(C)(C)C[C@H]2O)c(-c2ccccc2)nc1C(N)=O (racemic) [Compound 24, rac-5-(3-((1R,2R)-2-hydroxy-4,4-dimethyl-1,2,3,4-tetrahydronaphthalen-1-yl)ureido)-3-methyl-6-phenylpicolinamide] | ≥ 7.30 |
| Cc1cc(NC(=O)N[C@@H]2c3ccc(Br)cc3C(C)(C)C[C@H]2O)c(-c2ccccc2)nc1C(N)=O (racemic) [Compound 23, rac-5-(3-((1R,2R)-6-bromo-2-hydroxy-4,4-dimethyl-1,2,3,4-tetrahydronaphthalen-1-yl)ureido)-3-methyl-6-phenylpicolinamide] | ≥ 7.30 |
| Cc1cc(NC(=O)N[C@@H]2c3ccccc3C(C)(C)C[C@H]2O)c(-c2ccccc2)nc1-c1ccnc(C(F)(F)F)c1 [Compound 17, 1-((1R,2R)-2-hydroxy-4,4-dimethyl-1,2,3,4-tetrahydronaphthalen-1-yl)-3-(3-methyl-6-phenyl-2′-(trifluoromethyl)-[2,4′-bipyridin]-5-yl)urea] | ≥ 7.30 |
| Cc1cc(NC(=O)N[C@@H]2c3ccccc3C(C)(C)C[C@H]2O)c(C2CCOCC2)nc1-c1ccc(O)nc1 (racemic) [Compound 31, rac-1-(6′-hydroxy-3-methyl-6-(tetrahydro-2H-pyran-4-yl)-[2,3′-bipyridin]-5-yl)-3-((1R,2R)-2-hydroxy-4,4-dimethyl-1,2,3,4-tetrahydronaphthalen-1-yl)urea] | ≥ 7.30 |
| Cc1cnc(-c2ccccc2)c(NC(=O)N[C@@H]2c3cc(Br)ccc3C(C)(C)C[C@H]2O)c1 (racemic) [Compound 32, rac-1-((1R,2R)-7-bromo-2-hydroxy-4,4-dimethyl-1,2,3,4-tetrahydronaphthalen-1-yl)-3-(5-methyl-2-phenylpyridin-3-yl)urea] | ≥ 7.30 |
| Cc1cc(NC(=O)N[C@@H]2c3ccccc3C(C)(C)C[C@H]2O)c(C2CCOCC2)nc1-c1cnn(C)c1 (racemic) [Compound 29, rac-1-((1R,2R)-2-hydroxy-4,4-dimethyl-1,2,3,4-tetrahydronaphthalen-1-yl)-3-(5-methyl-6-(1-methyl-1H-pyrazol-4-yl)-2-(tetrahydro-2H-pyran-4-yl)pyridin-3-yl)urea] | ≥ 7.30 |
| rac-1-((1R,2R)-6,7-difluoro-2-hydroxy-4,4-dimethyl-1,2,3,4-tetrahydronaphthalen-1-yl)-3-(2-(hydroxymethyl)-3-methyl-6-phenyl-[2,4′-bipyridin]-5-yl)urea [Compound 56] | ≥ 7.30 |
| Cc1cc(NC(=O)N[C@@H]2c3ccccc3C(C)(C)C[C@H]2O)c(-c2ccccc2)nc1-c1ccc(S(C)(=O)=O)nc1 [Compound 14, 1-((1R,2R)-2-hydroxy-4,4-dimethyl-1,2,3,4-tetrahydronaphthalen-1-yl)-3-(3-methyl-6′-(methylsulfonyl)-6-phenyl-[2,3′-bipyridin]-5-yl)urea] | ≥ 7.30 |

Now from value to molecule:

| pIC50 | Molecule |
| --- | --- |
| 6.00 to 7.30 | Cc1cc(NC(=O)N[C@@H]2c3cc(F)c(F)cc3C(C)(C)C[C@H]2O)c(C2CCOCC2)nc1C(N)=O (racemic) [Compound 58, rac-5-(3-((1R,2R)-6,7-difluoro-2-hydroxy-4,4-dimethyl-1,2,3,4-tetrahydronaphthalen-1-yl)ureido)-3-methyl-6-(tetrahydro-2H-pyran-4-yl)picolinamide] |
| 6.00 to 7.30 | Cc1ncc(-c2nc(-c3ccccc3)c(NC(=O)N[C@@H]3c4cc(F)c(F)cc4C(C)(C)C[C@H]3O)cc2C)s1 (racemic) [Compound 50, rac-1-((1R,2R)-6,7-difluoro-2-hydroxy-4,4-dimethyl-1,2,3,4-tetrahydronaphthalen-1-yl)-3-(5-methyl-6-(2-methylthiazol-5-yl)-2-phenylpyridin-3-yl)urea] |
| ≥ 7.30 | Cc1cc(NC(=O)N[C@@H]2c3cc(F)c(F)cc3C(C)(C)C[C@H]2O)c(-c2ccccc2)nc1CO (racemic) [Compound 43, rac-1-((1R,2R)-6,7-difluoro-2-hydroxy-4,4-dimethyl-1,2,3,4-tetrahydronaphthalen-1-yl)-3-(6-(hydroxymethyl)-5-methyl-2-phenylpyridin-3-yl)urea] |
| ≥ 7.30 | Cc1cc(NC(=O)N[C@@H]2c3cc(F)c(F)cc3C(C)(C)C[C@H]2O)c(-c2ccccc2)nc1-c1ccc(C#N)cc1 (racemic) [Compound 52, rac-1-(6-(4-cyanophenyl)-5-methyl-2-phenylpyridin-3-yl)-3-((1R,2R)-6,7-difluoro-2-hydroxy-4,4-dimethyl-1,2,3,4-tetrahydronaphthalen-1-yl)urea] |
| ≥ 7.30 | Cc1cc(NC(=O)N[C@@H]2c3cc(F)c(F)cc3C(C)(C)C[C@H]2O)c(-c2ccccc2)nc1C(=O)NCC(C)(C)O (racemic) [Compound 42, rac-5-(3-((1R,2R)-6,7-difluoro-2-hydroxy-4,4-dimethyl-1,2,3,4-tetrahydronaphthalen-1-yl)ureido)-N-(2-hydroxy-2-methylpropyl)-3-methyl-6-phenylpicolinamide] |
| ≥ 7.30 | Cc1cc(NC(=O)N[C@@H]2c3cc(F)c(F)cc3C(C)(C)C[C@H]2O)c(-c2ccccc2)nc1-c1ccn(C)n1 (racemic) [Compound 48, rac-1-((1R,2R)-6,7-difluoro-2-hydroxy-4,4-dimethyl-1,2,3,4-tetrahydronaphthalen-1-yl)-3-(5-methyl-6-(1-methyl-1H-pyrazol-3-yl)-2-phenylpyridin-3-yl)urea] |
| ≥ 7.30 | Cc1ncc(-c2nc(-c3ccccc3)c(NC(=O)N[C@@H]3c4cc(F)ccc4C(C)(C)C[C@H]3O)cc2C)cn1 (racemic) [Compound 34a] |
| ≥ 7.30 | Cc1cc(NC(=O)N[C@@H]2c3cc(F)c(F)cc3C(C)(C)C[C@H]2O)c(-c2ccccc2)nc1-c1ccc(CO)cc1 (racemic) [Compound 45, rac-1-((1R,2R)-6,7-difluoro-2-hydroxy-4,4-dimethyl-1,2,3,4-tetrahydronaphthalen-1-yl)-3-(6-(4-(hydroxymethyl)phenyl)-5-methyl-2-phenylpyridin-3-yl)urea] |
| ≥ 7.30 | Cc1cc(-c2nc(-c3ccccc3)c(NC(=O)N[C@@H]3c4cc(F)c(F)cc4C(C)(C)C[C@H]3O)cc2C)cnn1 (racemic) [Compound 49, rac-1-((1R,2R)-6,7-difluoro-2-hydroxy-4,4-dimethyl-1,2,3,4-tetrahydronaphthalen-1-yl)-3-(5-methyl-6-(6-methylpyridazin-4-yl)-2-phenylpyridin-3-yl)urea] |
